Read-outs that look alike come from different tables or passages of the source.
Tested on: Peripheral Neuropathy in a Mouse Caused by Vincristine
Assay type: in vivo, Balb/c mice
Description: Six to seven-week-old female Balb/c mice were used for the tests. All the mice were acclimated for seven days after arrival. Then, the mice were grouped into the following four groups: a control group, a group receiving vincristine, a group receiving xylitol, and a group receiving vincristine and xylitol (a group receiving vincristine+xylitol). Each group consisted of five mice.
On Day 8 of acclimation, the mice in the group receiving vincristine and the group receiving vincristine+xylitol were intraperitoneally administered with vincristine at a dose of 0.2 mg/kg. This day was designated as Day 0 of administration. Thereafter, these mice were intraperitoneally administered with vincristine at a daily dose of 0.2 mg/kg on Day 7 and Day 14.
The mice in the group receiving xylitol and the group receiving vincristine+xylitol were orally administered with xylitol at a dose of 5 mg/kg daily from Day 0.
A cold plate test was performed to examine the effect of xylitol on paresthesia that is caused by a low temperature stimulus. The mice in the four groups described in (7) of the present example (Example 1) were placed on a cold plate set at 10° C., and withdrawal response time (latent time) was measured. It is presumed that a shorter latent time reflects a greater degree of shunning the low temperature stimulus by the cold plate.
Six to seven-week-old female Balb/c mice were used for the tests as with Example 1. All the mice were acclimated for seven days after arrival. Then, the mice were grouped into the following four groups: a control group, a group receiving vincristine, a group receiving xylitol, and a group receiving vincristine and xylitol (a group receiving vincristine+xylitol). Each group consisted of five mice.
On Day 8 of acclimation, the mice in the group receiving vincristine and the group receiving vincristine+xylitol were intraperitoneally administered with vincristine at a dose of 0.2 mg/kg. This day was designated as the first day of the administration (Day 0). Thereafter, these mice were intraperitoneally administered with vincristine at the same dose on Day 7 and Day 14 for a total of 3 doses.
The mice in the group receiving 100 mg/kg xylitol were orally administered with xylitol at a dose of 100 mg/kg daily from Day 0. The mice in the group receiving vincristine+100 mg/kg xylitol were orally administered with xylitol at a dose of 100 mg/kg daily from Day 6 of administration.
A test was performed on the mice in the four groups described in (9) of the present example (Example 2) to examine the effect of xylitol on paresthesia that is caused by a low temperature stimulus. The mice in respective groups were placed on a cold plate set at 10° C., and withdrawal response time (latent time) was measured. It is presumed that a shorter latent time reflects a greater degree of shunning the low temperature stimulus by the cold plate.
Six to seven-week-old female Balb/c mice were used for the tests as with Example 1. All the mice were acclimated for seven days after arrival. Then, the mice were grouped into the following four groups: a control group, a group receiving vincristine, a group receiving D-threitol, and a group receiving vincristine and D-threitol (a group receiving vincristine+D-threitol). Each group consisted of five mice.
On Day 8 of acclimation, the mice in the group receiving vincristine and the group receiving vincristine+D-threitol were intraperitoneally administered with vincristine at a dose of 0.2 mg/kg. This day was designated as Day 0 of administration. Thereafter, these mice were intraperitoneally administered with vincristine at a daily dose of 0.2 mg/kg on Day 7 and Day 14.
The mice in the group receiving D-threitol and the group receiving vincristine+D-threitol were orally administered with D-threitol at a dose of 5 mg/kg daily from Day 0.
A cold plate test was performed to examine the effect of D-threitol on paresthesia that is caused by a low temperature stimulus. […]

[1] = 0.2 mg/kg vincristine + 5 mg/kg test substance orally daily from Day 0 (prevention)
[2] = 0.2 mg/kg vincristine + 100 mg/kg orally daily from Day 6, on Day 12, vs group receiving 0.2 mg/kg vincristine

SMILES | withdrawal response time (latent time) [1] | withdrawal response time (latent time) (0.2 mg/kg vincristine + 100 mg/kg orally daily from Day 6 (therapy), time course after Day 6) | withdrawal response time (latent time) [2]
OC[C@@H](O)[C@H](O)CO [D-threitol] | approximately similar to that of the control group | significantly longer withdrawal response time | significantly longer withdrawal response time
OC[C@@H](O)[C@H](O)[C@@H](O)CO [xylitol] | approximately similar to that of the control group |  | significantly longer withdrawal response time
OC[C@H](O)[C@H](O)[C@H](O)[C@@H](O)CO [L-talitol] | approximately similar to that of the control group |  | significantly longer withdrawal response time

— patent US20240099989A1, “AGENT FOR PREVENTING OR IMPROVING PERIPHERAL NEUROPATHY” (KINKI UNIVERSITY, priority 2021, published 2024)
